Among the data in patent publication US9365562B2, “1,3 substituted azetidine PDE10 inhibitors” (Merck Sharp & Dohme Corp., priority 2011, dated 2016) are Ki values, retold here.

Structures are written as SMILES.

For this test, the target named is human PDE10A2 (Homo sapiens (Human), UniProt Q9Y233). Nature of the test: PDE10 fluorescence polarization (IMAP FP) inhibition assay. The class given is biochemical. Conditions: apparent inhibition constant, FAM-labeled cAMP substrate 50 nM, room temperature. On the procedure: The activity of the compounds in accordance with the present invention as PDE10 inhibitors may be readily determined without undue experimentation using a fluorescence polarization (FP) methodology that is well known in the art (Huang, W., et al., J. Biomol Screen, 2002, 7: 215).
Sequence of human PDE10A2 (Q9Y233 267-1055): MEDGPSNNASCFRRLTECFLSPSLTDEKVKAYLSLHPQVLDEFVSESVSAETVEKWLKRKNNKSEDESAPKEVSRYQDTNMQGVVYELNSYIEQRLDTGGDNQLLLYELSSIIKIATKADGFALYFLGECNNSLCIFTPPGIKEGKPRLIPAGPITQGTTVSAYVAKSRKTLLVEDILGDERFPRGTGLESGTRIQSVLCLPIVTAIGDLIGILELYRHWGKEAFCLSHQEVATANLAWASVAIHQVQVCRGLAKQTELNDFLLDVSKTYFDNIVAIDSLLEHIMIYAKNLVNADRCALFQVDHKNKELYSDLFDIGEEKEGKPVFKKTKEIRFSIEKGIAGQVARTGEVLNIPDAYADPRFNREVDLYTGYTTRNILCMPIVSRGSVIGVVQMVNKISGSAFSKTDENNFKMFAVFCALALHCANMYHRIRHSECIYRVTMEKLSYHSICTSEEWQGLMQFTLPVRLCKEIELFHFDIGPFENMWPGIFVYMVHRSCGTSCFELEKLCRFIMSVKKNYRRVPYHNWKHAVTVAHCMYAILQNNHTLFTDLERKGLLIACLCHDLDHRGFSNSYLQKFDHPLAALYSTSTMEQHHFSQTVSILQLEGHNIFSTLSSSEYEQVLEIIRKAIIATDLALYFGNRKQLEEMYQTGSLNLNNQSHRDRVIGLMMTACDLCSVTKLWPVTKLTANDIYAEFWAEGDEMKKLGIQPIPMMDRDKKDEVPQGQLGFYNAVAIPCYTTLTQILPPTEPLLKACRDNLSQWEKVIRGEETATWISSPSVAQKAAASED
In a typical experiment the PDE10 inhibitory activity of the compounds of the present invention was determined in accordance with the following experimental method. PDE10A2 was amplified from human fetal brain cDNA (Clontech, Mountain View, Calif.) using a forward primer corresponding to nucleotides 56-77 of human PDE10A2 (Accession No. AF127480, Genbank Identifier 4894716), containing a Kozak consensus sequence, and a reverse primer corresponding to nucleotides 2406-2413 of human PDE10A2 (Accession No. AF127480, Genbank Identifier 4894716). Amplification with Easy-A polymerase (Stratagene, La Jolla, Calif.) was 95° C. for 2 minutes followed by thirty three cycles of 95° C. for 40 seconds, 55° C. for 30 seconds, and 72° C. for 2 minutes 48 seconds. Final extension was 72° C. for 7 minutes. The PCR product was TA cloned into pcDNA3.2-TOPO (Invitrogen, Carlsbad, Calif.) according to standard protocol. AD293 cells with 70-80% confluency were transiently transfected with human PDE10A2/pcDNA3.2-TOPO using Lipofectamine 2000 according to manufacturer specifications (Invitrogen, Carlsbad, Calif.). Cells were harvested 48 hours post-transfection and lysed by sonication (setting 3, 10×5 sec pulses) in a buffer containing 20 mM HEPES, 1 mM EDTA and protease inhibitor cocktail (Roche). Lysate was collected by centrifugation at 75,000×g for 20 minutes. Supernatant containing the cytoplasmic fraction was used for evaluation of PDE10A2 activity. The fluorescence polarization assay for cyclic nucleotide phosphodiesterases was performed using an IMAP® FP kit supplied by Molecular Devices, Sunnyvale, Calif. (product # R8139). IMAP® technology has been applied previously to phosphodiesterase assays (Huang, W., et al., J. Biomol Screen, 2002, 7: 215). Assays were performed at room temperature in 384-well microtiter plates with an incubation volume of 20.2 μL. Solutions of test compounds were prepared in DMSO and serially diluted with DMSO to yield 8 μL of each of 10 solutions differing by 3-fold in concentration, at 32 serial dilutions per plate. 100% inhibition is determined using a known PDE10 inhibitor, which can be any compound that is present at 5,000 times its Ki value in the assay described as follows, such as papaverine (see Siuciak, et al. Neuropharmacology (2006) 51:386-396; Becker, et al. Behav Brain Res (2008) 186(2):155-60; Threlfell, et al., J Pharmacol Exp Ther (2009) 328(3):785-795), 2-{4-[pyridin-4-yl-1-(2,2,2-trifluoroethyl)-1H-pyrazol-3-yl]phenoxymethyl}quinoline succinic acid or 2-[4-(1-methyl-4-pyridin-4-yl-1H-pyrazol-3-yl)-phenoxymethyl]quinoline succinic acid (see Schmidt, et al. J Pharmacol Exp Ther (2008) 325:681-690; Threlfell, et al., J Pharmacol Exp Ther (2009) 328(3): 785-795). 0% of inhibition is determined by using DMSO (1% final concentrations). A Labcyte Echo 555 (Labcyte, Sunnyvale, Calif.) is used to dispense […] from each well of the titration plate to the 384 well assay plate. A solution of enzyme (1/7000 dilution from aliquots; sufficient to produce 20% substrate conversion) and a separate solution of FAM-labeled cAMP PDE from Molecular Devices (product # R7506), at a final concentration of 50 nM are made in the assay buffer (10 mM Tris HCl, pH 7.2, 10 mM MgCl2, 0.05% NaN3 0.01% Tween-20, and 1 mM DTT). The enzyme is added to the assay plates by the addition of 10 μL of enzyme solution to each well, shaken to mix and incubated at room temperature for 60 minutes. The substrate is then added to the assay plates by the addition of 10 μL of substrate solution to each well, shaken to mix, and incubated at room temperature for 60 minutes. […]
As for `Cc1nc(N2CC(c3nc4ccccc4n3CCF)C2)cc(-n2nc(C)nc2C)n1` [Example 116, 2-(1-(6-(3,5-dimethyl-1H-1,2,4-triazol-1-yl)-2-methylpyrimidin-4-yl)azetidin-3-yl)-1-(2-fluoroethyl)-1H-benzo[d]imidazole], the Ki was determined as 6.2 nM. Then `Cc1nc(-c2cccnc2C)cc(N2CC(c3nc4ccccc4n3C)C2)n1` [Example 80, 1-Methyl-2-(1-(2-methyl-6-(2-methylpyridin-3-yl)pyrimidin-4-yl)azetidin-3-yl)-1H-benzo[d]imidazole], with over 100 nM. For `Cc1nc(N2CC(c3nc4ccccc4n3CC#N)C2)cc(-n2nc(C)nc2C)n1` [Example 115, 2-(2-(1-(6-(3,5-dimethyl-1H-1,2,4-triazol-1-yl)-2-methylpyrimidin-4-yl)azetidin-3-yl)-1H-benzo[d]imidazol-1-yl)acetonitrile] the value was 14 nM. Then `Cc1nc(N2CC(c3nc4c(F)cccc4n3C)C2)cc(-n2nc(C)nc2C)n1` [Example 122, 2-(1-(6-(3,5-dimethyl-1H-1,2,4-triazol-1-yl)-2-methylpyrimidin-4-yl)azetidin-3-yl)-4-fluoro-1-methyl-1H-benzo[d]imidazole], with 17 nM; and `Cc1nc(-c2cccnn2)cc(N2CC(c3nc4ccccc4n3C)C2)n1` [Example 106, 1-methyl-2-{1-[2-methyl-6-(pyridazin-3-yl)pyrimidin-4-yl]azetidin-3-yl}-1H-benzimidazole], with 11 nM. Consider `Cc1nc(C2CCOCC2)n(-c2cc(N3CC(c4nc5ccccc5n4C)C3)nc(C(F)(F)F)n2)n1` [Example 69, 1-methyl-2-(1-(6-(3-methyl-5-(tetrahydro-2H-pyran-4-yl)-1H-1,2,4-triazol-1-yl)-2-(trifluoromethyl)pyrimidin-4-yl)azetidin-3-yl)-1H-benzo[d]imidazole], for which the Ki stood at 1.8 nM.

With `Cc1nc(C)n(-c2cc(N3CC(c4nc5ccccc5n4C)C3)nc(OCc3nccs3)n2)n1` [Example 72, 2-(((4-(3,5-dimethyl-1H-1,2,4-triazol-1-yl)-6-(3-(1-methyl-1H-benzo[d]imidazol-2-yl)azetidin-1-yl)pyrimidin-2-yl)oxy)methyl)thiazole], the Ki is 0.28 nM. Then `Cc1nc(-c2ccccc2O)cc(N2CC(c3nc4ccccc4n3C)C2)n1` [Example 92, 2-(2-methyl-6-(3-(1-methyl-1H-benzo[d]imidazol-2-yl)azetidin-1-yl)pyrimidin-4-yl)phenol], with 30 nM; and `Cc1nc(N2CC(c3nc4ccccc4n3CCCC#N)C2)cc(-n2nc(C)nc2C)n1` [Example 121, 4-(2-(1-(6-(3,5-dimethyl-1H-1,2,4-triazol-1-yl)-2-methylpyrimidin-4-yl)azetidin-3-yl)-1H-benzo[d]imidazol-1-yl)butanenitrile], with 9.5 nM. For `Cc1nc(N2CC(c3nc4ccccc4n3C)C2)cc(-n2nc(C)nc2-c2ccccc2Cl)n1` [Example 50, 2-(1-(6-(5-(2-chlorophenyl)-3-methyl-1H-1,2,4-triazol-1-yl)-2-methylpyrimidin-4-yl)azetidin-3-yl)-1-methyl-1H-benzo[d]imidazole] the value was 0.35 nM; for `CC(=O)c1ccc(-c2cc(N3CC(c4nc5ccccc5n4C)C3)nc(C)n2)nc1` [Example 102, 1-(6-(2-methyl-6-(3-(1-methyl-1H-benzo[d]imidazol-2-yl)azetidin-1-yl)pyrimidin-4-yl)pyridin-3-yl)ethanone], 9 nM; for `Cc1nc(-c2nccs2)cc(N2CC(c3nc4ccccc4n3C)C2)n1` [Example 105, 2-(2-methyl-6-(3-(1-methyl-1H-benzo[d]imidazol-2-yl)azetidin-1-yl)pyrimidin-4-yl)thiazole], 2.2 nM.

Regarding `Cc1nc(N2CC(c3nc4ccccc4n3C)C2)cc(-n2nncc2C)n1` [Example 27, 1-methyl-2-(1-(2-methyl-6-(5-methyl-1H-1,2,3-triazol-1-yl)pyrimidin-4-yl)azetidin-3-yl)-1H-benzo[d]imidazole], the Ki was found to be 8.5 nM. In the case of `Cc1nc(N2CC(c3nc4ccccc4n3C)C2)cc(-n2ccc(C3CC3)n2)n1` [Example 13, 2-(1-(6-(3-cyclopropyl-1H-pyrazol-1-yl)-2-methylpyrimidin-4-yl)azetidin-3-yl)-1-methyl-1H-benzo[d]imidazole], the Ki was determined as 0.74 nM. Consider `Cc1nc(N2CC(c3nc4ccccc4n3C)C2)cc(-n2cccn2)n1` [Example 3, 1-methyl-2-(1-(2-methyl-6-(1H-pyrazol-1-yl)pyrimidin-4-yl)azetidin-3-yl)-1H-benzo[d]imidazole], for which the Ki came to 2.5 nM.

On to `Cc1nc(N2CC(c3nc4ccccc4n3C)C2)cc(-n2ccc(C(F)(F)F)n2)n1` [Example 11, 1-methyl-2-(1-(2-methyl-6-(3-(trifluoromethyl)-1H-pyrazol-1-yl)pyrimidin-4-yl)azetidin-3-yl)-1H-benzo[d]imidazole], for which the Ki came to 0.76 nM. With `Cc1cnc(-c2nc(C)nn2-c2cc(N3CC(c4nc5ccccc5n4C)C3)nc(C)n2)cn1` [Example 53, 1-methyl-2-(1-(2-methyl-6-(3-methyl-5-(5-methylpyrazin-2-yl)-1H-1,2,4-triazol-1-yl)pyrimidin-4-yl)azetidin-3-yl)-1H-benzo[d]imidazole], the Ki was 26 nM. For `Cc1nc(-c2ccccc2F)cc(N2CC(c3nc4ccccc4n3C)C2)n1` [Example 90, 2-(1-(6-(2-fluorophenyl)-2-methylpyrimidin-4-yl)azetidin-3-yl)-1-methyl-1H-benzo[d]imidazole] the value was 15 nM; for `Cc1cc(C(F)(F)F)n(-c2cc(N3CC(c4nc5ccccc5n4C)C3)nc(C)n2)n1` [Example 10, 1-methyl-2-(1-(2-methyl-6-(3-methyl-5-(trifluoromethyl)-1H-pyrazol-1-yl)pyrimidin-4-yl)azetidin-3-yl)-1H-benzo[d]imidazole], 4 nM; for `CCc1nc(C)nn1-c1cc(N2CC(c3nc4ccccc4n3C)C2)nc(OC)n1` [Example 64, 2-(1-(6-(5-ethyl-3-methyl-1H-1,2,4-triazol-1-yl)-2-methoxypyrimidin-4-yl)azetidin-3-yl)-1-methyl-1H-benzo[d]imidazole], 0.4 nM. For the compound `Cc1nc(N2CC(c3nc4ccccc4n3C)C2)cc(-n2nc(C)nc2COc2ccccc2)n1` [Example 46, 1-methyl-2-(1-(2-methyl-6-(3-methyl-5-(phenoxymethyl)-1H-1,2,4-triazol-1-yl)pyrimidin-4-yl)azetidin-3-yl)-1H-benzo[d]imidazole], the Ki worked out at 1.2 nM.

On to `Cc1nc(N2CC(c3nc4ccccc4n3C)C2)cc(-n2nc(C)nc2C)n1` [Example 1, 2-(1-(6-(3,5-dimethyl-1H-1,2,4-triazol-1-yl)-2-methylpyrimidin-4-yl)azetidin-3-yl)-1-methyl-1H-benzo[d]imidazole], for which the Ki is 2.1 nM. Then `Cc1nc(N2CC(c3nc4ccccc4n3C)C2)cc(-n2nc(C)nc2C2CCCCC2)n1` [Example 45, 2-(1-(6-(5-cyclohexyl-3-methyl-1H-1,2,4-triazol-1-yl)-2-methylpyrimidin-4-yl)azetidin-3-yl)-1-methyl-1H-benzo[d]imidazole], with 2 nM.

For the compound `Cc1cnn(-c2cc(N3CC(c4nc5ccccc5n4C)C3)nc(C3CC3)n2)n1` [Example 33, 2-(1-(2-cyclopropyl-6-(4-methyl-2H-1,2,3-triazol-2-yl)pyrimidin-4-yl)azetidin-3-yl)-1-methyl-1H-benzo[d]imidazole], the Ki was found to be 0.54 nM.
